Measurements reported in patent publication US7332279B2 (Glycozym APS, priority 1999, dated 2008).
Like-named read-outs stand apart in the source and are kept apart here.

Key:
[1] = molecular target: T1, β3Gal-T5 (Homo sapiens, UniProt Q9Y2C3, M85T); experiment: Galactosyltransferase assay, partially purified secreted recombinant β3Gal-T5, saccharide acceptors; type: biochemical; conditions: for β3Gal-T5 activity, substrate concentration 1 mM: acceptor 1 mM; for β3Gal-T5 activity, substrate concentration 5 mM: acceptor 5 mM; for donor substrate utilisation by β3Gal-T5: with the acceptor substrates tested (data not shown)
T1 construct: designed to exclude the hydrophobic transmembrane segment and to encode amino acid residues 25-310; secretion signal of vector pAcGP67B (gp67); made in house; host or cells: baculovirus; Sf9 cells (media) and High Five cells (serum-free medium, partially purified)
T1 sequence (Q9Y2C3 25-310 M85T): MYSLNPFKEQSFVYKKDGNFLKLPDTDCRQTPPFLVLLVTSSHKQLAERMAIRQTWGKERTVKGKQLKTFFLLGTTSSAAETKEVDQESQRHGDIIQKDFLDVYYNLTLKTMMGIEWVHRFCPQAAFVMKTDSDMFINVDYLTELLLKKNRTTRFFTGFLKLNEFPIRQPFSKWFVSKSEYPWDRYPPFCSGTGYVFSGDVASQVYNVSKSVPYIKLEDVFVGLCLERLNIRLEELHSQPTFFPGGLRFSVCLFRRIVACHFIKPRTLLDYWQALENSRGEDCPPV
Source text: PCR product was cloned into the BamHI site of pAcGP67B (Pharmingen). […] This PCR product was cloned into the BamHI site of pVL1193 (Pharmingen). Both soluble and full length constructs were fully sequenced to confirm fidelity. Plasmids […]5-full were co-transfected with Baculo-GoldTM DNA (Pharmingen) as described previously (Bennett, […]. and Clausen, H. cDNA cloning and expression of a novel human UDP-N-acetyl-alpha-D-galactosamine. Polypeptide N-acetyl-galactosaminyl-transferase, GalNAc-T3. J. Biol. Chem. 271:17006-17012, 1996). Recombinant Baculo-virus were obtained after two successive amplifications in Sf9 cells grown in serum-containing medium, and titers of virus were estimated by titration in 24-well plates with monitoring of enzyme activities. […] J. Biol. […] J. Biol. […] Polypeptide N-acetyl-galactosaminyl-transferase, GalNAc-T3. J. Biol. Chem. 271:17006-17012, 1996). For large scale expression amplified virus was used to infect High FiveTM cells grown in serum-free media (Invitrogen) in upright roller bottles shaking at 140 rpm and 27° C. The kinetic properties were determined with partially purified, secreted forms of the enzymes. Semipurification of enzymes from serum-free medium of infected High-FiveTM cells was performed by sequential Amberlite, DEAE-Sephacel and 5-Sepharose chromatography as described previously ([…]., et al. […] J. Biol. Chem. 272:23503-23514, 1997). Comparisons of enzymes were performed relatively to the activity obtained with βGlcNAc-Bz1 (Tables II and III). Full length enzymes were assayed with 1% Triton CF54 homogenates of washed cells. […] Reaction products were quantified by Dowex-1 chromatography. […] P. and Clausen, H. […] J. Biol. Chem. 273:29295-29305, 1998). The transfer of Gal was evaluated after acid precipitation by filtration through Whatman GF/C glass fibre filters. […] Assays with glycolipid acceptors were conducted as previously described (Holmes, E. H. […] Arch Biochem Biophys 270:630-646, 1989) in reaction mixtures containing 2.5 μmol HEPES buffer, pH 7.2, μmol MnCl2, 100 μg taurodeoxycholate or Triton CF-54, 20 μg acceptor glycolipid, 15 nmol UDP-[^14C]-galactose (13,000 cpm/nmol) and enzyme in a total volume of 100 μl. Conditions for incubation and product isolation were as previously described (Id.).

[2] = molecular target: T1, β3Gal-T5; experiment: Galactosyltransferase assay with glycolipid acceptors, β3Gal-T5; type: biochemical; conditions: for β3Gal-T5 activity with glycolipid acceptor, Triton CF-54: 100 μg Triton CF-54/100 μl; for β3Gal-T5 activity with glycolipid acceptor, Triton CF-54 / β3Gal-T5 activity with glycolipid acceptor, TDOC: 20 μg glycolipid; for β3Gal-T5 activity with glycolipid acceptor, TDOC: 100 μg taurodeoxycholate/100 μl
Protocol: The kinetic properties were determined with partially purified, secreted forms of the enzymes. Semipurification of enzymes from serum-free medium of infected High-Five™ cells was performed by sequential Amberlite, DEAE-Sephacel and 5-Sepharose chromatography as described previously (Wandall, H. H., Hassan, H., Mirgorodskaya, E., et al. Substrate specificities of three. members of the human UDP-N-acetyl-alpha-D-galactosamine:Polypeptide Nacetylgalactosaminyltransferase family, GalNAc-T1, -T2, and -T3. J. Biol. Chem. 272:23503-23514, 1997). Comparisons of enzymes were performed relatively to the activity obtained with βGlcNAc-Bz1 (Tables II and III). Full length enzymes were assayed with 1% Triton CF54 homogenates of washed cells. Enzyme assays were performed in 50 μl total reaction mixtures containing 25 mM Cacodylate (pH 7.5), 10 mM MnCl2, 0.25% Triton X-100, 100 μM UDP-[^14C]-Gal (2,600 cpm/nmol) (Amersham), and varying concentrations of acceptor substrates (Sigma) (see Table I for structures). Reaction products were quantified by Dowex-1 chromatography. […] The transfer of Gal was evaluated after acid precipitation by filtration through Whatman GF/C glass fibre filters. […] Assays with glycolipid acceptors were conducted as previously described (Holmes, E. H. Characterization and membrane organization of beta 1-3- and beta 1-4-galactosyltransferases from human colonic adenocarcinoma cell lines Cob 205 and SW403: basis for preferential synthesis of type 1 chain lacto-series carbohydrate structures. Arch Biochem Biophys 270:630-646, 1989) in reaction mixtures containing 2.5 μmol HEPES buffer, pH 7.2, μmol MnCl2, 100 μg taurodeoxycholate or Triton CF-54, 20 μg acceptor glycolipid, 15 nmol UDP-[^14C]-galactose (13,000 cpm/nmol) and enzyme in a total volume of 100 μl. Conditions for incubation and product isolation were as previously described (Id.).

| Molecule | β3Gal-T5 activity, substrate concentration 1 mM [1] [nmol/min/mL] | β3Gal-T5 activity, substrate concentration 5 mM [1] [nmol/min/mL] | also measured |
| --- | --- | --- | --- |
| GalNAcβ1-3Galα1-4Galβ1-4Glcβ1-Cer [Gβ4] | – | – | β3Gal-T5 activity with glycolipid acceptor, Triton CF-54 [2]: 0.09 µmol/h/mg; β3Gal-T5 activity with glycolipid acceptor, TDOC [2]: 0.6 µmol/h/mg |
| GalNAcβ1-4Galβ1-4Glcβ1-Cer [Gg3] | – | – | β3Gal-T5 activity with glycolipid acceptor, Triton CF-54 [2]: 0.005 µmol/h/mg; β3Gal-T5 activity with glycolipid acceptor, TDOC [2]: 0.09 µmol/h/mg |
| GlcNAcβ1-3Galβ1-4G1cNAcβ1-3Galβ1-4Glcβ1-Cer [nLC5] | – | – | activity, fold lower than with Lc3 [2]: ~3 fold; β3Gal-T5 activity with glycolipid acceptor, Triton CF-54 [2]: 0.4 µmol/h/mg; β3Gal-T5 activity with glycolipid acceptor, TDOC [2]: 1.6 µmol/h/mg |
| CC(=O)N[C@@H]1[C@@H](O)[C@H](O)[C@@H](CO)O[C@@H]1O [D-GIcNAc] | 0.5 | 1.2 | – |
| CC(=O)N[C@H]1[C@@H](OCc2ccccc2)O[C@H](CO)[C@H](O)[C@@H]1O [α-D-GalNAc-Bzl] | 0.0 | 0.0 | – |
| CC(=O)N[C@H]1[C@@H](OCc2ccccc2)O[C@H](CO)[C@@H](O)[C@@H]1O [α-D-GlcNAc-Bzl] | 0.0 | 0.0 | – |
| O=[N+]([O-])c1ccccc1O[C@H]1O[C@H](CO)[C@H](O)[C@H](O)[C@H]1O [α-D-Gal-1-o-Nph] | 0.0 | 0.0 | – |
| CC(=O)N[C@H]1[C@@H](OP(=O)(O)OP(=O)(O)OC[C@H]2O[C@@H](n3ccc(=O)[nH]c3=O)[C@H](O)[C@@H]2O)O[C@H](CO)[C@H](O)[C@@H]1O [UDP-GalNAc] | – | – | donor substrate utilisation by β3Gal-T5 [1]: did not utilize |
| CC(=O)N[C@H]1[C@@H](OP(=O)(O)OP(=O)(O)OC[C@H]2O[C@@H](n3ccc(=O)[nH]c3=O)[C@H](O)[C@@H]2O)O[C@H](CO)[C@@H](O)[C@@H]1O [UDPGlcNAc] | – | – | donor substrate utilisation by β3Gal-T5 [1]: did not utilize |
| Glcβ1-Cer [GlcCer] | – | – | β3Gal-T5 activity with glycolipid acceptor, TDOC [2]: 0.04 µmol/h/mg |

The next lines start with results.

| β3Gal-T5 activity, substrate concentration 1 mM [1] [nmol/min/mL] | β3Gal-T5 activity, substrate concentration 5 mM [1] [nmol/min/mL] | Molecule | also measured |
| --- | --- | --- | --- |
| 0.0 | 0.0 | Cc1cc(=O)oc2cc(O[C@@H]3OC[C@@H](O[C@@H]4O[C@H](CO)[C@H](O)[C@H](O)[C@H]4O)[C@H](O)[C@H]3O)ccc12 [β-Gal-(1–4)-β-D-Xyl-1-Me-umb] | – |
| 27.4 | 87.4 | CO[C@@H]1O[C@H](CO)[C@H](O)[C@H](O[C@@H]2O[C@H](CO)[C@@H](O)[C@H](O)[C@H]2NC(C)=O)[C@H]1O [β-D-GlcNAc-(1–3)-β-D-Gal-1-Me] | Vmax ([1]; Table V): 972.9 pmol/min; Km ([1]; Table V, read-out: Km): 1800 µM; Km ([1]; acceptor substrate, read-out: apparent Km of β3Gal-T5): 1800 µM |
| 1.1 | 3.4 | CC(=O)N[C@@H]1[C@@H](O)[C@H](O)[C@@H](CO)O[C@H]1Sc1ccc([N+](=O)[O-])cc1 [β-D-GlcNAc-1-thio-p-Nph] | – |
| 4.0 | 13.0 | COC1OC(COC2OC(CO)C(O)C(O)C2NC(C)=O)C(O)C(O)C1O [β-D-GlcNAc-(1–6)-α-D-Man-1-Me] | – |
| 2.6 | 7.5 | CC(=O)N[C@H]1[C@H](Oc2ccc3c(C)cc(=O)oc3c2)O[C@H](CO)[C@@H](O)[C@@H]1O [β-D-GlcNAc-Me-umb] | – |
| 0.0 | 0.0 | CC(=O)NC1C(OC2C(OCC3OC(O)C(O)C(OC4OC(CO)C(O)C(O)C4OC4OC(CO)C(O)C(O)C4NC(C)=O)C3O)OC(CO)C(O)C2O)OC(CO)C(O)C1O [β-D-GlcNAc-(1–2)-α-D-Man-(1–3)-[β-D-GlcNAc-(1–2)-α-D-Man-(1–6)-]D-Man] | – |
| 0.0 | 0.0 | O=[N+]([O-])c1ccccc1O[C@@H]1O[C@H](CO)[C@H](O)[C@H](O)[C@H]1O [β-D-Gal-1-o-Nph] | – |
| 0.0 | 0.0 | Cc1cc(=O)oc2cc(O[C@@H]3O[C@H](CO)[C@@H](O)[C@H](O)[C@H]3O)ccc12 [β-D-Glc-Me-umb] | – |
| 0.0 | 3.0 | CC(=O)NC1C(OC2C(O)OC(CO)C(O)C2O)OC(CO)C(O)C1O [β-D-GlcNAc-(1–2)-α-D-Man] | – |
| 2.1 | 6.9 | CC(=O)N[C@H]1[C@H](Oc2ccc([N+](=O)[O-])cc2)O[C@H](CO)[C@@H](O)[C@@H]1O [β-D-GlcNAc-1-p-Nph] | – |
| 0.0 | 0.0 | CC(=O)N[C@H]1[C@H](Oc2ccc3c(C)cc(=O)oc3c2)O[C@H](CO)[C@H](O)[C@@H]1O [β-D-GalNAc-Me-umb] | – |
